Laboratory results from patent US12576157B2, “Peptide saporin conjugate for the treatment of cancer” (SRI International, priority 2017, dated 2026).
Residues, ends and D or L forms follow the SMILES beside them.

Tests used:
NSCLC tumor = assay: H1299.3 15-mer in vivo tumor targeting
Protocol: (§1) A modified MGS peptide (SEQ ID NO: 31) that fuses amino acids 1-5 and 11-20 of the original MGS peptide: LQWRRNFGVWARYRL (SEQ ID NO: 31) was assessed.

[1] = Solubility of H1299.3 15-mer; type: physicochemical; settings: effect of acetylation
[2] = tested on: NSCLC and other tumor cells; assay: Peptide binding/internalization in tumor cell lines; type: cell-based, human
Protocol: (§2) Flow Cytometry. Biotinylated peptide was conjugated to streptavidin-R-phycoerythrin (1:1) for 30 min at RT. The remaining binding sites on streptavidin were quenched with RPMI 1640 and solution diluted to 25 nM. Tumor cells were grown to 90% confluency in a 12 well plate, then incubated with 500 μl peptide-dye conjugate for 1 hour at 37 C. After 1 hour, peptide was removed and the cells were washed 3× with PBS for 5 min, 2× with acid rinse, and 1×PBS rinse. Added 300 μl trypsin until cells lifted then added 700 μl RPMI+5% FBS to inactivate the trypsin. Cells were transferred to a flow tube, and put on ice in the dark. Flow cytometry was run on BD FACSCelesta and data were analyzed on Flowing software. A region containing <5% of the cells in the negative control is established and the McGuire score is calculated for each sample by multiplying the % of positive cells by the fluorescence intensity.
(§3) For the flow cytometry experiments, cells are treated with a peptide (e.g., a MGS peptide) that has a dye on it for one hour. If the peptide enters the cell(s), the dye will also enter the cell(s) (see, FIG. 11). Next, the cells are washed and placed in a tube to run flow cytometry. The flow cytometer can measure the brightness of 10,000 or more individual cells.
Phage blocking was used as a control. HCC15.2 was internalized by a specific panel of cell lines and not others.

LC line H1299 = assay: Flow cytometry binding of peptide-dye conjugate, H1299; type: cell-based, human
Protocol: as §2, §3

normal HBEC's = assay: Flow cytometry binding of peptide-dye conjugate, normal HBEC; type: cell-based
Protocol: as §2, §3

H1299 cells = assay: Confocal microscopy, organelle co-localization; type: cell-based, human; settings: over time
Protocol: Confocal Microscopy. Plasmids with organelle specific markers labeled with GFP were purchased from Addgene and electroporated into H1299 cells. After G418 selection, GFP-labeled tumor cells were plated on 8 well chamber slides on the day previous to the study. Biotinylated peptide was conjugated to streptavidin-AlexaFluor 555 (1:1) for 30 min at RT and quenched with RPMI, then added to the wells at 50 nM. After 1 hour incubation cells were washed for 5 min 3× with PBS, 2× acid rinses, and 1×PBS rinse. Cells were fixed in 2% formaldehyde for 10 min, washed with PBS, stained with DAPI in mounting media and coverslip was added. Microscopy was acquired on a Zeiss LSM 700 with a Pln Apo 63×/1.4 oil DIC III objective. Compressed images were obtained using ImageJ software maximal intensity projections.
For the microscopy experiments, cells are treated with a peptide (e.g., a MGS peptide) that has a dye on it for one hour. If the peptide enters the cell(s), the dye will also enter the cell(s) (see, FIG. 1). Next, the cells are washed and fixed to glass plate. Other parts of the cell (e.g., cell membrane, organelles or nucleus) are stained. Fluorescent microscopy is performed to assess the dyes in the cells. Confocal microscopy is used to take a series of sliced images that can be used to build a 3D picture (like an MRI).

cancer cells [3] = assay: H1299.3 15-mer cell binding and autophagosome co-localization; type: cell-based
Protocol: as §1

cancer cells [4] = assay: Cancer cell killing assay; type: cell-based; settings: unconjugated
Protocol: A cancer cell killing assay was performed (see, FIG. 22). Cancer cells were put into a dish. After 24 hours, cells were given different doses of peptide-saporin for 1 hour. Peptide-saporin was washed off and cells were left for 72 more hours. Assay to measure live cells performed.

With `CC(=O)N[C@@H](CC(C)C)C(=O)N[C@@H](CCC(N)=O)C(=O)N[C@@H](Cc1c[nH]c2ccccc12)C(=O)N[C@@H](CCCNC(=N)N)C(=O)N[C@@H](CCCNC(=N)N)C(=O)N[C@@H](CC(N)=O)C(=O)N[C@@H](Cc1ccccc1)C(=O)NCC(=O)N[C@H](C(=O)N[C@@H](Cc1c[nH]c2ccccc12)C(=O)N[C@@H](C)C(=O)N[C@@H](CCCNC(=N)N)C(=O)N[C@@H](Cc1ccc(O)cc1)C(=O)N[C@@H](CCCNC(=N)N)C(=O)N[C@@H](CC(C)C)C(=O)O)C(C)C` [1299.3 Ac-15mer] (Ac-LQWRRNFGVWARYRL-OH; N-terminus and C-terminus assumed) the degradation in vivo (NSCLC tumor; effect of acetylation) was “protects degradation in vivo” and the solubility [1] was “improves solubility”.
For FHAVPQSFYT [SEQ ID NO: 3], the “effect of acetylation on binding of the truncated peptide” value ([2]; N-terminal acetylation) was “improves binding”.
For FHAVPQSFYTAP [HCC15.2], the “binding by flow cytometry” value (LC line H1299) was “binds”, the “binding by flow cytometry” value (normal HBEC's) was “does not bind” and the “binding to cell line panel” value [2] was “binds to a specific subset of NSCLC and other tumor cells”. The internalization ([2]; at 4° C.) was “does not internalize”, the “effect of tetramerization on receptor mediated internalization” value ([2]; tetramer compared to monomer) was “does not significantly improve” and the internalization ([2]; treating with trypsin 2 min before adding peptide) was “no internalization”. The lysosome localization (H1299 cells) was “accumulates in the lysosome over time”.
For LQWRRNFGVWARYRL [SEQ ID NO: 31], the cancer specificity (cancer cells [3]; cancer versus normal cell binding) was “maintains its cancer specificity”, the “trafficking to the autophagosome” value (cancer cells [3]; versus original peptide) was “increases its ability to traffic to the autophagosome” and the “tumor targeting in vivo” value (NSCLC tumor; NSCLC tumor in an animal) was “hones to a NSCLC tumor”. For the same compound, the “reduction in heart, lung and kidney tumors” value (NSCLC tumor; in vivo) was greater than 2 fold.
For “saporin: ribosome inactivating protein (RIP, 34 KD) with no cell entry domain; plant toxin”, the cell entry (cancer cells [4]) was “did not enter the cell by itself”.
